pIC50: −log10 of the molar value.
Test system: HL60 cell line
Assay: Inhibitory effect on growth of HL60 cell line (MTT)
Format: cell-based
Details: Homo sapiens, HL-60, 72 h, 3 days culture
Procedure: In the culture of HL60 cells, 10% FBS-containing RPMI1640 medium was used Each of test substances was serially diluted in DMSO to a concentration of 10 mg/ml and serially diluted in PBS to a final concentration ranging from 100 μg/ml to 0.03 μg/ml. 20 μl (micro-liter) of each of the serially diluted test substances and 180 μl (micro-liter) of a medium containing 60×10^4 cells/ml were added to a 96-well plate and cultured under conditions of 37° C. and 5% CO2 for 3 days. After completion of the culture, 50 μl (micro-liter) of a solution of 1.25 mg/ml MTT (3-(4,5-dimethylthiazol-2-yl)-2,5-diphenyltetrazolium bromide) in PBS was added to each well of the plate and incubated at 37° C. for 3 hours. The formed formazan crystal was dissolved in 150 μl (micro-liter) of DMSO, and the absorbance at 570 nm was measured.

pIC50	Structure (SMILES)
7.70 to 8.00	CN1CCN(C(=O)N(CCCCCCC(=O)NO)c2ccc(-c3ccc4cc[nH]c4c3)cc2)CC1 [Compound 309, N-(4-(1H-indol-6-yl)phenyl)-N-(7-(hydroxyamino)-7-oxoheptyl)-4-methylpiperazine-1-carboxamide]
7.30 to 7.70	CN1CCN(C(=O)N(CCCCCCC(=O)NO)c2ccc(-c3ccc4[nH]ccc4c3)cc2)CC1 [Compound 313, N-(4-(1H-indol-5-yl)phenyl)-N-(7-(hydroxyamino)-7-oxoheptyl)-4-methylpiperazine-1-carboxamide]
7.30 to 7.70	CCS(=O)(=O)N(CCCCCCC(=O)NO)c1ccc(-c2ccc3[nH]ccc3c2)cc1 [Compound 314, 7-(N-(4-(1H-indol-5-yl)phenyl)ethylsulfonamido)-N-hydroxyheptanamide]
7.30 to 7.70	CS(=O)(=O)N(CCCCCCC(=O)NO)c1ccc(-c2ccc3cc[nH]c3c2)nc1 [Compound 326, 7-(N-(6-(1H-indol-6-yl)pyridin-3-yl)methylsulfonamido)-N-hydroxyheptanamide]
7.00 to 7.30	Cn1ncc2ccc(-c3ccc(N(CCCCCCC(=O)NO)S(C)(=O)=O)cn3)cc21 [Compound 327, N-hydroxy-7-(N-(6-(1-methyl-1H-indazol-6-yl)pyridin-3-yl)methylsulfonamido)heptanamide]
7.30 to 7.70	CS(=O)(=O)N(CCCCCCC(=O)NO)c1ccc(-c2ccc3[nH]ccc3c2)nc1 [Compound 328, 7-(N-(6-(1H-indol-5-yl)pyridin-3-yl)methylsulfonamido)-N-hydroxyheptanamide]
7.00 to 7.30	CN1CCCN(C(=O)N(CCCCCCC(=O)NO)c2ccc(-c3ccc4cc[nH]c4c3)cc2)CC1 [Compound 330, N-(4-(1H-indol-6-yl)phenyl)-N-(7-(hydroxyamino)-7-oxoheptyl)-4-methyl-1,4-diazepane-1-carboxamide]
7.70 to 8.00	CCN1CCN(C(=O)N(CCCCCCC(=O)NO)c2ccc(-c3ccc4[nH]ccc4c3)cc2)CC1 [Compound 340, N-(4-(1H-indol-5-yl)phenyl)-4-ethyl-N-(7-(hydroxyamino)-7-oxoheptyl)piperazine-1-carboxamide]
7.30 to 7.70	CN1CCN(C(=O)N(CCCCCCC(=O)NO)c2ccc(-c3ccc4c(ccn4C)c3)cc2)CC1 [Compound 341, N-(7-(hydroxyamino)-7-oxoheptyl)-4-methyl-N-(4-(1-methyl-1H-indol-5-yl)phenyl)piperazine-1-carboxamide]
7.30 to 7.70	CN1CCN(S(=O)(=O)N(CCCCCCC(=O)NO)c2ccc(-c3ccc4cnn(C)c4c3)cc2)CC1 [Compound 342, N-hydroxy-7-(4-methyl-N-(4-(1-methyl-1H-indazol-6-yl)phenyl)piperazine-1-sulfonamido)heptanamide]

Continued, molecule first:

Structure (SMILES)	pIC50
COc1ccc(C(=O)N(CCCCCCC(=O)NO)c2ccc(-c3ccc4cc[nH]c4c3)cc2)cc1 [Compound 180, N-(4-(1H-indol-6-yl)phenyl)-N-(7-(hydroxyamino)-7-oxoheptyl)-4-methoxybenzamide]	7.30 to 7.70
O=C(CCCCCCN(C(=O)c1cccnc1)c1ccc(-c2ccc3cc[nH]c3c2)cc1)NO [Compound 181, N-(4-(1H-indol-6-yl)phenyl)-N-(7-(hydroxyamino)-7-oxoheptyl)nicotinamide]	7.30 to 7.70
O=C(CCCCCCN(C(=O)c1ccccn1)c1ccc(-c2ccc3cc[nH]c3c2)cc1)NO [Compound 211, N-(4-(1H-indol-6-yl)phenyl)-N-(7-(hydroxyamino)-7-oxoheptyl)picolinamide]	7.00 to 7.30
COc1cccc(NC(=O)N(CCCCCCC(=O)NO)c2ccc(-c3ccc4cc[nH]c4c3)cc2)c1 [Compound 256, 7-(1-(4-(1H-indol-6-yl)phenyl)-3-(3-methoxyphenyl)ureido)-N-hydroxyheptanamide]	7.00 to 7.30
COc1cc(NC(=O)N(CCCCCCC(=O)NO)c2ccc(-c3ccc4cc[nH]c4c3)cc2)cc(OC)c1 [Compound 260, 7-(1-(4-(1H-indol-6-yl)phenyl)-3-(3,5-dimethoxyphenyl)ureido)-N-hydroxyheptanamide]	7.00 to 7.30
O=C(CCCCCCN(c1ccc(-c2ccc3cc[nH]c3c2)cc1)S(=O)(=O)c1cccnc1)NO [Compound 263, 7-(N-(4-(1H-indol-6-yl)phenyl)pyridine-3-sulfonamido)-N-hydroxyheptanamide]	7.30 to 7.70
CS(=O)(=O)N(CCCCCCC(=O)NO)c1ccc(-c2ccc3cc[nH]c3c2)cc1 [Compound 264, 7-(N-(4-(1H-indol-6-yl)phenyl)methylsulfonamido)-N-hydroxyheptanamide]	7.30 to 7.70
CN(C)CC(=O)N(CCCCCCC(=O)NO)c1ccc(-c2ccc3cc[nH]c3c2)cc1 [Compound 265, 7-(N-(4-(1H-indol-6-yl)phenyl)-2-(dimethylamino)acetamido)-N-hydroxyheptanamide]	7.00 to 7.30
CCOC(=O)N(CCCCCCC(=O)NO)c1ccc(-c2ccc3cc[nH]c3c2)cc1 [Compound 267, Ethyl 4-(1H-indol-6-yl)phenyl(7-(hydroxyamino)-7-oxoheptyl)carbamate]	7.00 to 7.30
Cn1ncc2ccc(-c3ccc(N(CCCCCCC(=O)NO)C(=O)c4cccnc4)cc3)cc21 [Compound 270, N-(7-(hydroxyamino)-7-oxoheptyl)-N-(4-(1-methyl-1H-indazol-6-yl)phenyl)nicotinamide]	7.00 to 7.30
CNC(=O)N(CCCCCCC(=O)NO)c1ccc(-c2ccc3cc[nH]c3c2)cc1 [Compound 275, 7-(1-(4-(1H-indol-6-yl)phenyl)-3-methylureido)-N-hydroxyheptanamide]	7.00 to 7.30
CCS(=O)(=O)N(CCCCCCC(=O)NO)c1ccc(-c2ccc3cc[nH]c3c2)cc1 [Compound 276, 7-(N-(4-(1H-indol-6-yl)phenyl)ethylsulfonamido)-N-hydroxyheptanamide]	7.30 to 7.70
CN(C)S(=O)(=O)N(CCCCCCC(=O)NO)c1ccc(-c2ccc3cc[nH]c3c2)cc1 [Compound 277, 7-((4-(1H-indol-6-yl)phenyl)(N,N-dimethylsulfamoyl)amino)-N-hydroxyheptanamide]	7.00 to 7.30
Cn1ncc2ccc(-c3ccc(N(CCCCCCC(=O)NO)S(C)(=O)=O)cc3)cc21 [Compound 284, N-hydroxy-7-(N-(4-(1-methyl-1H-indazol-6-yl)phenyl)methylsulfonamido)heptanamide]	7.00 to 7.30
CCNC(=O)N(CCCCCCC(=O)NO)c1ccc(-c2ccc3cc[nH]c3c2)cc1 [Compound 295, 7-(1-(4-(1H-indol-6-yl)phenyl)-3-ethylureido)-N-hydroxyheptanamide]	7.00 to 7.30
Cc1cc2cc(-c3ccc(N(CCCCCCC(=O)NO)S(C)(=O)=O)cc3)ccc2[nH]1 [Compound 296, N-hydroxy-7-(N-(4-(2-methyl-1H-indol-5-yl)phenyl)methylsulfonamido)heptanamide]	7.00 to 7.30
CS(=O)(=O)N(CCCCCCC(=O)NO)c1ccc(-c2ccc3[nH]ccc3c2)cc1 [Compound 303, 7-(N-(4-(1H-indol-5-yl)phenyl)methylsulfonamido)-N-hydroxyheptanamide]	7.70 to 8.00
O=C(CCCCCCN(C(=O)c1ccccn1)c1ccc(-c2ccc3[nH]ccc3c2)cc1)NO [Compound 305, N-(4-(1H-indol-5-yl)phenyl)-N-(7-(hydroxyamino)-7-ooxheptyl)picolinamide]	7.30 to 7.70
O=C(CCCCCCN(C(=O)N1CCOCC1)c1ccc(-c2ccc3cc[nH]c3c2)cc1)NO [Compound 306, N-(4-(1H-indol-6-yl)phenyl)-N-(7-(hydroxyamino)-7-oxoheptyl)morpholine-4-carboxamide]	7.70 to 8.00

Reference: patent US8466161B2, “Hydroxamate derivative, a production method for the same, and a pharmaceutical composition comprising the same” (Chong Kun Dang Pharmaceutical Corp., priority 2009, dated 2013)
